In doi:10.1101/2021.02.21.432137v1 (biorxiv, 2021):
Where two headings read alike, the source gives them in different places.

What was measured:
[1] = target: human recombinant STK24 (aka MST3) (Homo sapiens, UniProt Q9Y6E0); conditions: inhibitor
[2] = target: human recombinant STK26 (aka MST4) (Homo sapiens, UniProt Q9P289); conditions: inhibitor
human recombinant STK4 = target: T1, human recombinant STK4 (Homo sapiens, UniProt Q13043); conditions: inhibitor
T1 sequence (Q13043 1-487): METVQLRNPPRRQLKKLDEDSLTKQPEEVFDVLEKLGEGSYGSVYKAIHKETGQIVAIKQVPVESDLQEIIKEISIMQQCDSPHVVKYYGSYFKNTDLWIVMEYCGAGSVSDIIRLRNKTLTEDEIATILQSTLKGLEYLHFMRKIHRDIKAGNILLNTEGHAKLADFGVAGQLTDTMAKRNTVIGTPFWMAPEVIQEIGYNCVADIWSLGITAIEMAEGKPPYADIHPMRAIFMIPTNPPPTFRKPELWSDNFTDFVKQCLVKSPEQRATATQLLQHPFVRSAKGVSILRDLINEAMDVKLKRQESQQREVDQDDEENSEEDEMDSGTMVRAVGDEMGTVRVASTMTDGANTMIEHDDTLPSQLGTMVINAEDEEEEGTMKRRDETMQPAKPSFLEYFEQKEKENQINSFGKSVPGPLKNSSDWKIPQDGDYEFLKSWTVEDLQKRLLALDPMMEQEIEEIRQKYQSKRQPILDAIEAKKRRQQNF

[3] = target: T2, human recombinant STK3 (MST2) (Homo sapiens, UniProt Q13188); conditions: inhibitor
T2 sequence (Q13188 1-491 limits assumed): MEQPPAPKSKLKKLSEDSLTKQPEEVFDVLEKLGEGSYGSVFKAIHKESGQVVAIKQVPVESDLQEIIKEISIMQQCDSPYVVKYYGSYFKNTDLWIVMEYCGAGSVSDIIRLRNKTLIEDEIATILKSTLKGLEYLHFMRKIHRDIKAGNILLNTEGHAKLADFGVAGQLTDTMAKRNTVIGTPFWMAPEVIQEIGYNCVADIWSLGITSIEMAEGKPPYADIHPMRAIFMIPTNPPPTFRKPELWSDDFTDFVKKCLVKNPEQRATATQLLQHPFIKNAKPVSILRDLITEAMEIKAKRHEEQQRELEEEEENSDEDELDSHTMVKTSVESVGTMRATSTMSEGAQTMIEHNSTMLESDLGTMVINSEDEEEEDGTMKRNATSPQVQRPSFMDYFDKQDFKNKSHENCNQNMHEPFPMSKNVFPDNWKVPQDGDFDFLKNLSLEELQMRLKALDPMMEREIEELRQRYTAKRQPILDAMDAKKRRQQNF

[4] = target: T3, NanoLuc-STK3 (STK3-NanoBRET) (Homo sapiens, UniProt Q13188); test: NanoBRET tracer displacement in live cells; format: cell-based
T3 sequence (Q13188 1-491): T2 sequence (Q13188 1-491 limits assumed)

[5] = target: T2, human recombinant STK3 (MST2); test: radiometric kinase assay; format: biochemical

human recombinant STK24 (aka MST3), sequence (Q9Y6E0 whole entry): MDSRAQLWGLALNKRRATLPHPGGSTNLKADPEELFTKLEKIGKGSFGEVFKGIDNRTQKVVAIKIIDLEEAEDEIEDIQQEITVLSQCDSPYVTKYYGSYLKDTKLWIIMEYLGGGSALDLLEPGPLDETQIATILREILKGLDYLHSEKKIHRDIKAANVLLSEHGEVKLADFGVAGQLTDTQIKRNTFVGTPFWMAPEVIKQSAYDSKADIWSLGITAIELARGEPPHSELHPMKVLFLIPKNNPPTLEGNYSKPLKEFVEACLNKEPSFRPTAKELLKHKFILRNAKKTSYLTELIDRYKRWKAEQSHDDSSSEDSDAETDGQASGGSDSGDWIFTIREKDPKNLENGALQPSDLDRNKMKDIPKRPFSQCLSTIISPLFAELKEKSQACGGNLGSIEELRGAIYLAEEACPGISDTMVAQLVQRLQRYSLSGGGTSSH
human recombinant STK26 (aka MST4), sequence (Q9P289 2-416): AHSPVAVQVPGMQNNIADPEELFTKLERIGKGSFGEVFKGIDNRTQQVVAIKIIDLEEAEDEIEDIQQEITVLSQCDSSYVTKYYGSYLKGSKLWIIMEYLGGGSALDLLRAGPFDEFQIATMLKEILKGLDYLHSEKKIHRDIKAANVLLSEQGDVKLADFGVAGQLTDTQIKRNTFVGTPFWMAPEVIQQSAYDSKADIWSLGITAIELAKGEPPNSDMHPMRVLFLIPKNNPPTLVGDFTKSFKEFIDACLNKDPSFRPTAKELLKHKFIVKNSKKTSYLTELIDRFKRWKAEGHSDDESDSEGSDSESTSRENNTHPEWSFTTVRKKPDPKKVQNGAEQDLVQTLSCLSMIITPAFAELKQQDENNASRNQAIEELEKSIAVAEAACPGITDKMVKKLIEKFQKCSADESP

SMILES	MST3 % activity remaining (1µM) [1] [%]	MST4 % activity remaining (1µM) [2] [%]	STK4 % activity remaining (1µM) (human recombinant STK4) [%]	IC50 [4] [µM]	other results
C[C@H](NC(=O)c1c[nH]c2ncc(-c3ccccc3)nc12)C(C)(C)O [A4]	9	51	4	–	–
C[C@H](NC(=O)c1c[nH]c2ncc(C3CC3)nc12)C(C)(C)O [A2]	12	54	7	–	STK3 % activity remaining (1µM) [3]: 15%
C[C@H](NC(=O)c1c[nH]c2ncc(C3CC3)nc12)C(C)(C)O [A2, UNC-BE4-018]	–	–	–	9.2	IC50 [5]: 195 nM
C[C@H](NC(=O)c1c[nH]c2ncc(-c3ccccc3)nc12)C(C)(C)C [A3]	6	27	2	–	–
COCCCNC(=O)c1c[nH]c2ncc(C3CC3)nc12 [A6, UNC-BE4-032]	–	–	–	> 10	–
COc1cccc([C@H](C)NC(=O)c2c[nH]c3ncc(-c4ccccc4)nc23)c1 [A5]	21	74	39	–	–
C[C@H](NC(=O)c1c[nH]c2ncc(-c3ccccc3)nc12)C(C)(C)O [A4, UNC-BE4-36-1]	–	–	–	2.1	IC50 [5]: 124 nM
COc1cccc([C@H](C)NC(=O)c2c[nH]c3ncc(-c4ccccc4)nc23)c1 [A5, UNC-BE4-040-1]	–	–	–	–	IC50 ([5]; ATP at Km, myelin basic protein substrate): 391 nM; IC50 ([4]; read-out: NB IC50, NanoBRET Tracer K10 at […], live HEK-293 cells): > 10 µM
C[C@H](NC(=O)c1c[nH]c2ncc(-c3ccccc3)nc12)C(C)(C)C [A3, UNC-BE4-035]	–	–	–	2	IC50 [5]: 7 nM

Further lines, with some results ahead:

MST3 % activity remaining (1µM) [1] [%]	MST4 % activity remaining (1µM) [2] [%]	STK4 % activity remaining (1µM) (human recombinant STK4) [%]	IC50 [4] [µM]	SMILES	other results
–	–	–	> 10	CS(=O)(=O)N1CCN(C(=O)c2c[nH]c3ncc(C4CC4)nc23)CC1 [A9, UNC-BE4-031]	–
15	40	14	–	CN1C(=O)c2sccc2N(C)c2nc(Nc3ccc(S(N)(=O)=O)cc3)ncc21 [XMU-MP-1]	–
92	106	98	–	CS(=O)(=O)N1CCN(C(=O)c2c[nH]c3ncc(C4CC4)nc23)CC1 [A9]	STK3 % activity remaining (1µM) [3]: 82%
–	–	–	> 10	O=C(c1c[nH]c2ncc(C3CC3)nc12)N1CCOCC1 [A13, UNC-BE4-036]	–
85	82	84	–	O=C(c1c[nH]c2ncc(C3CC3)nc12)N1CCOCC1 [A13]	STK3 % activity remaining (1µM) [3]: 138%
–	–	–	> 10	CNS(=O)(=O)CCNC(=O)c1c[nH]c2ncc(C3CC3)nc12 [A11, UNC-BE4-033]	–
60	71	36	–	CNS(=O)(=O)CCNC(=O)c1c[nH]c2ncc(C3CC3)nc12 [A11]	STK3 % activity remaining (1µM) [3]: 89%
–	–	–	4.3	CN(C)c1ncnc2[nH]cc(-c3cccc(C#N)c3)c12 [B1, UNC-SOB-5-16]	IC50 [5]: 113 nM
31	74	26	–	COCCCNC(=O)c1c[nH]c2ncc(C3CC3)nc12 [A6]	STK3 % activity remaining (1µM) [3]: 44%
